Patent US4704403A, “3-(2,2,2-trisubstituted hydrazinium) propionates” (priority 1983, dated 1987)

Columns and labels:
[1] = Acute toxicity upon intraperitoneal administration to white mice; format: in vivo; details: mouse, in vivo, ip, 14 days observation, average values with confidential limits at P=0.05
Experimental: (§1) The acute toxicity of the compounds according to the present invention was studied on white mice of both sexes with a mass of 20-25 g. A saturated aqueous solution of the compounds or a suspension in Tween-80 was administered to the animals intraperitoneally. The observation over the animals was carried out for 14 days. The results obtained were processed following the Litchfield-Wilkoxon method. As it follows from the data shown in Table 5 hereinbelow, the studied compounds have a very low acute toxicity, thus providing a large spectrum of the therapeutic effect.

white mice = experiment: as above; format: in vivo; details: i.p.
Experimental: as §1

[2] = tested on: arrhythmia caused by introduction of calcium chloride; experiment: Antiarrhythmic activity on the model of arrhythmia caused by calcium chloride (antagonism towards calcium); format: in vivo, mice; details: for Dose of calcium chloride causing arrhythmia: control 85.0; for Dose of calcium chloride causing heart arrest: control 100.0
Experimental: In experiments on white mice with a mass of 18-25 g narcotized with urethane an electrocardiogram was recorded in the second standard lead. A 2% solution of calcium chloride was introduced into the tail vein at a constant rate (0.01 ml for 2 seconds). The dose of calcium chloride causing arrhythmia and the dose causing heart arrest were determined. In experimental groups the test compounds were administered 20-40 minutes prior to the beginning of the experiment intraperitoneally.

[3] = tested on: hypertensive male rats of the Akamoto-Aoki line; experiment: Variation of arterial pressure upon intraperitoneal administration to hypertensive rats; format: in vivo
Experimental: The study of hypotensive properties of the compounds of this invention has been carried out of hypertensive male rats of the Akamoto-Aoki line aged 25-30 weeks. The animals were divided into groups (7-10 rats in each) and for 2 weeks before the beginning of the experiment they were subjected to an every-day training for adaptation to the unit for measurements of the arterial pressure. The systolic and diastolic arterial pressure were measured indirectly on the tail artery. The level of the arterial pressure prior to administration of the test compounds was measured by way of a triple determination thereof--2 days, one day and right before the administration of the preparation. The compounds were administered intraperitoneally in the form of a 2.5% aqueous solution or a 2.5% suspension in Twin-80 in the dose of 50 mg/kg. The measurement of the arterial pressure was effected 30 minutes, 1, 2, 3 and 4 hours and in some cases 24 hours after the administration of the preparation. For a number of compounds featuring a high efficiency, also determined was the dose causing reduction of the arterial pressure by 30% as compared with the starting level (ED30). The statistical processing of the data obtained was carried out using the Student certainty criterion.

[4] = tested on: spontaneously hypertensive rats of the Akamoto-Aoki line; experiment: Systolic arterial pressure of spontaneously hypertensive rats upon a repeated peroral administration; format: in vivo
Experimental: Thus, after a four-days course of administration (once a day, per os) of the compounds according to the present invention an essential reduction of the arterial pressure in the test animals is observed which is not returned to the initial level even an expiration of four days after discontinuation of the preparation administration, whereas the hypotensive effect of nifedipine is manifested for only 8 hours.

[5] = 30 minutes, 50 mg/kg i.p. (nifedipine 1 mg/kg i.p.)
[6] = 1 hour, 50 mg/kg i.p. (nifedipine 1 mg/kg i.p.)
[7] = 2 hours, 50 mg/kg i.p. (nifedipine 1 mg/kg i.p.)
[8] = 4 hours, 50 mg/kg i.p. (nifedipine 1 mg/kg i.p.)
[9] = after four-days p.o. course, benzyl 40 mg/kg, allyl 50 mg/kg, nifedipine dose not given
[10] = p.o. once a day, benzyl 40 mg/kg, allyl 50 mg/kg, nifedipine dose not given
[11] = p.o., benzyl 40 mg/kg, allyl 50 mg/kg, nifedipine dose not given

Compound | LD50 at 336 h [1] | Relative toxicity with respect to quinidine (LD50 / LD50 of quinidine) (white mice) | Dose of calcium chloride causing arrhythmia ([2]; compound dose 5 mg/kg i.p.) | Dose of calcium chloride causing heart arrest ([2]; compound dose 5 mg/kg i.p.) | Dose of calcium chloride causing arrhythmia ([2]; compound dose 15 mg/kg i.p.) | Dose of calcium chloride causing heart arrest ([2]; compound dose 15 mg/kg i.p.) | Average variation of the diastolic arterial pressure [3, 5] | Average variation of the systolic arterial pressure [3, 5] | Average variation of the diastolic arterial pressure [3, 6] | Average variation of the systolic arterial pressure [3, 6] | Average variation of the diastolic arterial pressure [3, 7] | Average variation of the systolic arterial pressure [3, 7] | Average variation of the diastolic arterial pressure [3, 8] | Average variation of the systolic arterial pressure [3, 8] | also measured
CC[N+](CC)(CC)NCCC(=O)[O-] [3-(2,2,2-Triethylhydrazinium)propionate, 3-(2,2,2-triethylhydrazinium)propionate monohydrate] | > 3000 mg/kg | above 19.2 | 100.0 | 120.0 | 127.0 | 142.5 | – | – | – | – | – | – | – | – | –
C[N+](C)(CC[N+](C)(C)NCCC(=O)[O-])NCCC(=O)[O-] [3-(2,2-dimethyl-2-[1',1'-dimethyl-2'-carboxylatoethylhydrazin-1'-ium]-ethylhydrazinium)propionate dihydrate] | 2100 mg/kg | 13.4 | 96.0 | 112.0 | 108.5 | 120.0 | – | – | – | – | – | – | – | – | –
C[N+](C)(Cc1cccc2ccccc12)NCCC(=O)[O-] [3-(2,2-dimethyl-2-naphthylmethylhydrazinium)propionate] | > 3000 mg/kg | above 19.2 | 108.0 | 132.5 | 126.7 | 143.0 | 0 % of the initial | 0 % of the initial | -3 % of the initial | 0 % of the initial | -2 % of the initial | -3 % of the initial | -14 % of the initial | -5 % of the initial | Average variation of the diastolic arterial pressure ([3]; 24 hours, 50 mg/kg i.p.): -7 % of the initial; Average variation of the systolic arterial pressure ([3]; 24 hours, 50 mg/kg i.p.): -4 % of the initial
C#CC[N+](C)(C)NCCC(=O)[O-] [3-(2,2-dimethyl-2-propargylhydrazinium)propionate hydrogen bromide] | 1650 mg/kg | 10.5 | 110.4 | 125.0 | 120.0 | 135.0 | -17 % of the initial | -6 % of the initial | -16 % of the initial | -10 % of the initial | -7 % of the initial | -10 % of the initial | -10 % of the initial | -6 % of the initial | –
CCC[N+](C)(C)NCCC(=O)[O-] [3-(2,2-dimethyl-2-propylhydrazinium)propionate] | 1800 mg/kg | 11.5 | 112.5 | 123.0 | 125.3 | 140.5 | – | – | – | – | – | – | – | – | –
CC[N+](C)(CC)NCCC(=O)[O-] [3-(2-methyl-2,2-diethylhydrazinium)propionate monohydrate] | 1450 mg/kg | 9.3 | 105.5 | 118.6 | 120.0 | 136.0 | +10 % of the initial | +4 % of the initial | -4 % of the initial | +2 % of the initial | +1 % of the initial | 0 % of the initial | -8 % of the initial | -6 % of the initial | –
COC(=O)C1=C(C)NC(C)=C(C(=O)OC)C1c1ccccc1[N+](=O)[O-] [Nifedipine, reference compound] | – | – | – | – | – | – | -8 % of the initial | -4 % of the initial | -14 % of the initial | -12 % of the initial | -21 % of the initial | -8 % of the initial | -31 % of the initial | -11 % of the initial | Systolic arterial pressure, 5th day [4, 9]: 178 mm Hg; Systolic arterial pressure, 8th day [4, 9]: 186 mm Hg; Systolic arterial pressure, 10th day [4, 9]: 182 mm Hg; Systolic arterial pressure, 2nd day after administration ([4]; p.o. once a day, allyl 50 mg/kg, nifedipine dose not given): 148 mm Hg; Systolic arterial pressure, 1st day after administration ([4]; p.o. once a day, benzyl 40 mg/kg (initial 195.8), allyl 50 mg/kg (initial 176.6), nifedipine dose not given (initial 184.0)): 150.0 mm Hg; Systolic arterial pressure, 2nd day before administration [4, 10]: 186 mm Hg; Systolic arterial pressure, 3rd day after administration [4, 10]: 153 mm Hg; Systolic arterial pressure, 4th day after administration [4, 10]: 146 mm Hg; Systolic arterial pressure, 4th day before administration [4, 10]: 180 mm Hg; Systolic arterial pressure, 3rd day before administration ([4]; p.o. once a day, benzyl 40 mg/kg, nifedipine dose not given): 183 mm Hg; Percent in parentheses (change of systolic pressure from initial), 2nd day after administration ([4]; p.o., allyl 50 mg/kg, nifedipine dose not given): 20%; Percent in parentheses (change of systolic pressure from initial), 1st day after administration [4, 11]: 18%; Percent in parentheses (change of systolic pressure from initial), 3rd day after administration [4, 11]: 17%; Percent in parentheses (change of systolic pressure from initial), 4th day after administration [4, 11]: 21%; Percent in parentheses (change of systolic pressure from initial), 4th day before administration [4, 11]: 2%; Percent in parentheses (change of systolic pressure from initial), 5th day [4, 11]: 3%; duration of hypotensive effect ([4]; repeated p.o.): 8 h
C=C[C@H]1C[N@@]2CC[C@H]1C[C@@H]2[C@@H](O)c1ccnc2ccc(OC)cc12 [Quinidine, reference compound] | 156 mg/kg | 1 | – | – | – | – | – | – | – | – | – | – | – | – | Dose of calcium chloride causing arrhythmia ([2]; compound dose 3 mg/kg i.p.): 126.9; Dose of calcium chloride causing heart arrest ([2]; compound dose 3 mg/kg i.p.): 136.0; Dose of calcium chloride causing arrhythmia ([2]; compound dose 10 mg/kg i.p.): 120.8; Dose of calcium chloride causing heart arrest ([2]; compound dose 10 mg/kg i.p.): 133.5
